Measured values taken from patent US9408828B2, “(+)-3′-angeloyloxy-4′-keto-3′,4′-dihydroseselin for treating inflammation” (Hong Kong Baptist University, priority 2014, dated 2016).

Test system: DSS-induced colitis
Assay: Chronic DSS-induced colitis in mice (body weight, DAI, colon length, histology)
Type: in vivo, C57BL/6 mice
Details: sulfasalazine (positive control) 300 mg/kg/day for seven days
Source text: 6-week-old male C57BL/6 mice weighing 18-20 g are purchased from the Laboratory Animal Services Center, the Chinese University of Hong Kong. The study protocols are approved by the committee for Care of Laboratory Animals in the School of Chinese Medicine at the Hong Kong Baptist University. The animals are divided into six groups (8-10 each group): control group (mice received drinking water and control diet), DSS-treated group (mice received 2.0% DSS in drinking and control diet), positive control group (mice received 2.0% DSS in drinking and ip, 300 mg/kg/day of sulfasalazine), Pd-Ib treatment groups will be given different dosed of Pd-Ib (mice received 2.0% DSS in drinking and i.p., 30, 60, or 120 mg/kg/day, respectively). As depicted in experiment design shown in FIG. 9, the mice are given tap water for 6 days, and then be divided into 6 groups. DSS is dissolved in distilled water at a concentration of 2% (w/v) and administered to the mice. The first day and the last day of DSS treatment are designated as day 7 and day 11, respectively. Mice are marked and checked daily for body weight. On day 12, body weight, stool consistency, and gross bleeding of each mouse are assessed, and animals showing body weight loss, diarrhea, and bleeding are selected for further analysis. All colitis mice are then interventions once daily for seven days, with eight mice in each group. The DSS model group is administered with tap water as negative control; while sulfasalazine is given as positive control (i.p., 300 mg/kg/day) and Pd-Ib treatment groups are given different doses of Pd-Ib (i.p., 30, 60, or 120 mg/kg/day, respectively). In parallel, a vehicle control group is also set up to receive drinking tap water without DSS throughout the entire experimental period. On day 19, after the mice are killed under anesthesia induced by pentobarbital sodium (i.p., 0.65 g/kg), the length of the large intestine is measured. All portions are stored at −80° C. for biochemical assays. The DAI is determined by scoring changes in the body weight, diarrhea, colon length, and bleeding. In brief, body weight, stool consistency, colon length and bleeding in the stool are monitored daily for determination of DAI. At the end of the experiment, mice are killed, and the colon is dissected from each mouse, and the length of which is measured from the ileocecal junction to the anal verge. The colons are opened longitudinally, gently washed with ice-cold PBS, fixed in 4% paraformaldehyde overnight, and embedded in paraffin. Five-micro-meter sections are stained with hematoxylin/eosin according to a standard procedure to evaluate colonic damage. Colitis is induced in all groups except the control group. Pd-Ib and sulfasalazine are administered to mice from day 6 to day 12. The change in body weight is taken as the difference between the body weight before induction of colitis and that immediately before sacrifice on day 13. The DAI score is determined by combining scores of (i) body weight loss, (ii) stool consistency, and (iii) stool bleeding. On day 13, the mice are sacrificed, and the colon lengths are measured. Data are expressed as mean±SEM, n=8 (^###p<0.001, compared with the control group; *p<0.05, **p<0.01, ***p<0.001, compared with DSS model group).

Compound: O=C(O)c1cc(/N=N/c2ccc(S(=O)(=O)Nc3ccccn3)cc2)ccc1O [sulfasalazine, Sulfasalazine, reference compound]
- histological manifestation of colon tissue sections: significantly decrease the damage of colon tissues
